The source of these data is a melting point compilation (Tetko et al.; mined from patent text by program, amines drawn as free bases though some values may be those of a salt).

Bounds are passed on as bounds.

As to `Cc1nc(N2C(=O)N(Cc3ccc(F)cc3)CC2O)sc1C(=O)NCc1ccccc1` (configuration not stated), the melting point – broadly, the temperature, or range, at which the solid turns liquid – was in the range of 133 to 134 °C. For `COC(=O)N1CCN(C(=O)N2CCC(c3cccnc3)C2)c2ccccc21` (configuration not stated), the melting point worked out at 83 °C. Next, `Clc1ccc2c(NCCCCCCCCCNc3ncnc4cc(Cl)ccc34)ncnc2c1`: 159 to 162 °C. The figure for `CN(C)C=NS(=O)(=O)CCC(C)(C)CCI` is 105 to 106 °C; for `Cc1ccc(C[C@@H](NC(=O)c2cccc3c2C=CCCC3)[C@@H](O)c2ccc(F)cc2)cc1OC(F)(F)C(F)F` (racemic) it is 168 to 169 °C. The figure for `CCOCc1nc2c(N)nc(C)c(C)c2n1CCOCCCc1nccs1` is 91 to 92 °C; for `Cc1cc(O)c(S(C)(=O)=O)cc1C(=O)N=C(N)N` it is greater than 260 °C. Turning to `COc1cc2ncnc(Oc3cccc(Cl)c3)c2cc1OC`, the melting point fell in the range of 152 to 153 °C.

The compound `O=C(Cc1ccc(Cc2ccc(F)cc2)o1)C(=O)c1ccc[nH]1` gave a melting point of 96 to 98 °C. Consider `CC(=O)NCCc1ccc(CCl)cc1`, for which the melting point lay in the range of 86 to 88 °C. The compound `O=C(NCCCCCn1cncn1)c1ccc(Cl)s1` came in with a melting point of 79 to 81 °C. For the compound `CC(C)(C)OC(=O)NCc1ccc(C(=O)Nc2ccccc2N)cc1`, the melting point was in the range of 160 to 162 °C.

As to `NC(=O)c1coc(-c2cccc(C3=Nc4ccc(-n5cccc5)cc4NC(=O)C3)c2)n1`, the melting point was in the range of 232 to 234 °C. Next, `CC(=O)CC(=O)NCC#N`: 63 to 65 °C; `Cn1c(=O)cc(-c2cccc(Cl)c2)c2cc(C(=O)c3cccc(I)c3)ccc21`: 235 °C. The figure for `COc1ccc(-c2nccc3c(CC#N)cccc23)cc1` is 130 to 132 °C; for `COC1CCc2[nH]c3ccccc3c2C1` (configuration not stated) it is 105 °C; for `COC(=O)C(=O)c1cc(OC)c(O)c([N+](=O)[O-])c1` it is 155 to 157 °C. Next, `COc1ccc(C(=O)/C=C/N(C)C)cc1COC(=O)C(C)(C)C`: 82 to 84 °C; `Cc1nc2c(cc1C=O)CCCCC2`: 38 to 40 °C.

On to `COC(=O)CN(CC(F)(F)F)c1ccc(C#N)c(C(F)(F)F)c1`, for which the melting point lay in the range of 144 to 145 °C. Next, `COC(=O)c1cncn1C(c1ccccc1)c1ccccc1`: 129 °C; `CC(=NOCCO)c1ccc(S(=O)(=O)c2ccccc2)nc1`: 77 to 78 °C; `O=C(Nc1ccc(S(=O)(=O)c2ccccc2)cc1)C(O)(C(F)F)C(F)F`: 105 to 108 °C. Next, `NC(=S)NNC(=O)CCCCc1ccccc1`: 140 to 141 °C; `Cc1ccc(S(=O)(=O)NC(C)(C)CO)cc1NC(=O)c1cnn2c(C3CC3)cc(-c3ccc(C(F)(F)F)cc3)nc12`: 232 to 233 °C. The figure for `CC(=O)N(CC=C=CC=c1c(C)c2c(n(-c3ccccc3)c1=O)=NN(c1ccccc1)C2=O)c1ccccc1` is greater than 300 °C. Take `COC(=O)c1cnnn1C1OC(COC(=O)c2ccccc2)C(OC(=O)c2ccccc2)C1OC(=O)c1ccccc1` (configuration not stated): the melting point lay in the range of 86 to 88 °C.

For `C=C[C@H]1CC(C(=O)O)=C[C@@H](OC(C)C)[C@@H]1NC(C)=O`, the melting point fell in the range of 206 to 207 °C. For `CCSCC#Cc1cc(F)c2ncc(C(=O)NCc3ccc(Cl)cc3)c(O)c2c1`, the melting point is 232 to 233 °C. The figure for `CC(C)(O)CCCCCc1ccc(CCc2cc(O)cc(O)c2)cc1` is 128 to 130 °C. For the compound `ON=C1CCCCC1=Cc1ccccc1`, the melting point was in the range of 114 to 115 °C. Next, `CC[C@H](COC)n1cc(Br)nc(N2CCc3cc(Br)cc(Cl)c32)c1=O`: 118 °C; `CCOC(=O)c1cc(O[C@@H]2c3c(C)ccc(C)c3C[C@H]2O)c2nc(C)n(C)c2c1` (relative stereo): 184 °C. Compound `CC(=NOc1ccc(F)cc1)c1ccc(C(F)(F)F)cc1NS(=O)(=O)C(F)(F)F` showed a melting point of 95 to 96 °C. For the compound `COC(=O)C1CN(C(=O)c2ccc(OC(F)(F)F)cc2)c2cc(Cl)ccc2CN1S(=O)(=O)c1ccc(OC)cc1` (configuration not stated), the melting point was 149 to 151 °C. The figure for `CSN=C1C(=O)N2C(C(=O)OC(c3ccccc3)c3ccccc3)=C(CSc3nnnn3C)CSC12` (configuration not stated) is 213 to 214 °C. The figure for `COc1ccc2c(c1)Sc1ccc(F)cc1C(O)C2` (configuration not stated) is 74 to 76 °C.

The compound `CCOCc1nc2c(N)nc3cc(OCc4csc(C)n4)ccc3c2n1CC(C)(C)O` registered a melting point of 200 to 201 °C.

`O=c1[nH]c2cnccc2c2nc(-c3ccccc3F)nn12` yielded a melting point of 285 to 287 °C. Regarding `COC(=O)c1cc(-c2ccccc2)c(=O)n2c1-c1sccc1CN2C(C)=O`, the melting point lay within 132 to 134 °C. The compound `O=C(O)c1c([N+](=O)[O-])ccc2c1OCO2` gave a melting point of 166 to 173 °C.

As to `CN(Cc1ccc(S(C)=O)cc1)S(=O)(=O)c1cn(S(=O)(=O)N(C)C)c(C#N)n1` (configuration not stated), the melting point was determined as 126 °C. The figure for `O=C(C1=CNCCS1)c1ccc(F)cc1` is 212 to 214 °C. Compound `O=C(Nc1ccc(F)cc1)c1ccccc1Cl` came in with a melting point of 93.3 to 96.2 °C.

In turn, `CC(=O)OC(C(C)C(C)C)C(OC(C)=O)C(C)C1CCC2C3CC(=O)C4CC=CCC4(C)C3CCC12C` (configuration not stated) registered a melting point of 210 to 213 °C.

Compound `COc1cc(S(C)(=O)=O)ccc1-c1nc2cc3c(cc2[nH]1)NC(=O)C3(C)C` came in with a melting point of 235 to 237 °C.

`Cc1cccc(NC(=O)NC2N=C(c3ccccc3)c3ccccc3N(C)C2=O)c1` (configuration not stated) displayed a melting point of 207 to 209 °C. `COc1cc(C(=O)NS(=O)(=O)c2ccccc2C)ccc1Cc1cn(C)c2ccc(C(=O)NC[C@H](C)CC(F)(F)F)cc12` returned a melting point of 142 to 144 °C.

The compound `Cc1c(CBr)oc2ccc(Cl)cc12` gave a melting point of 81 to 82 °C.

The compound `CC(C)N1C(N)=NS(=O)(=O)NC1Oc1ccc([N+](=O)[O-])cc1` (configuration not stated) returned a melting point of 132 to 136 °C. The figure for `FC(F)(F)c1ccc(/C=C/C=C/[C@H]2CC[C@H](SCc3ccc(Cl)cc3)CC2)cc1` is 142 to 144 °C; for `CC(C)CC1(CCCCCl)C(=O)Nc2c(Cl)cc(Cl)cc21` (configuration not stated) it is 93 to 94 °C; for `Cc1[nH]c(C(=O)NC2CCN(c3cc(C(=O)O)nc4ccccc34)CC2)c(Cl)c1Cl` it is 254 to 256 °C. In the case of `CCCCCCCCCC1COC(c2ccc(CCCCCCC)c(F)c2F)OC1` (configuration not stated), the melting point was 40.4 °C. Next, `CC(C)N1Cc2cc(C(=O)O)ccc2N(CCN2CC=C(c3c[nH]c4cc(F)ccc34)CC2)S1(=O)=O`: 193 to 194 °C; `CC1CC2(OC3CC4C5CCC6CC(O)CCC6(C)C5C(=O)CC4(C)C3C2(C)O)OC1(C)C` (configuration not stated): 206 to 208 °C. Next, `c1ccc(OCC2CN(Cc3nc4ccccc4[nH]3)CCO2)cc1` (racemic): 171 to 172 °C. `COc1cccc2c(=O)n3nc(C(N)=O)cc3[nH]c12` gave a melting point of 265 to 270 °C. Regarding `CCCCc1cn(-c2ccccc2Cl)c(=O)n1Cc1ccc(-c2ccccc2-c2nnn[nH]2)nc1`, the melting point was 81 to 83 °C.

`O=C(CNC(=O)C(Cc1ccccc1)CP(=O)(O)O)OCc1ccccc1` (configuration not stated) returned a melting point of 250 °C. `O=C(C=Cc1cccc(-c2ccc(F)cc2)c1)Nc1ccc(CN2CCCCC2)cc1` showed a melting point of 166 to 167 °C.

In turn, `CS(=O)(=O)c1ccc(C(=O)C2C(=O)CCCC2=O)c(Cl)c1OCc1cc(-c2ccccc2)no1` yielded a melting point of 72 to 78 °C. As to `CSc1ccc(-c2coc3ccc(-c4nnc(O)o4)cc23)cc1`, the melting point was 211 to 212 °C. The figure for `COC(=O)c1ccc(NC(C)=O)c(I)c1` is 140 to 141 °C; for `Cc1cc(N)c(Br)c(C)c1C` it is 69 °C; for `O=S(=O)(c1ccccc1)c1ccc(S)cc1` it is 117 °C.

`CCOC(=O)C1=C(CO)NC(C)=C(C(=O)OCc2ccccc2)C1c1ccccc1[N+](=O)[O-]` (configuration not stated) displayed a melting point of 51 to 57 °C.

The compound `CN1CCC(C2(O)c3cc(Cl)ccc3CC2(C)C)CC1` (configuration not stated) registered a melting point of 181 to 182 °C. Compound `Cc1c(Cc2ccccc2)[nH]c2ccccc2c1=O` showed a melting point of 285 to 287 °C. In turn, `OCCSC/C=C/c1ccc(Cc2cccnc2)cc1` came in with a melting point of 73 to 74 °C. Consider `Cc1cc2ccccc2c(-c2ccccc2I)n1`, for which the melting point was 111 to 112 °C. `CCCCCCCCc1ccc(CCC(CCOC(C)=O)(CCOC(C)=O)NC(C)=O)cc1` yielded a melting point of 57 to 59 °C. Next, `CCCn1cc(CO)c(=O)c2ccccc21`: 88 to 91 °C; `OC(c1ccccc1F)c1cc(C(F)(F)F)nc2c(C(F)(F)F)cccc12` (configuration not stated): 120 to 121 °C; `COc1cc(C(C)C)c2c(c1)S(=O)(=O)N(COc1cc(C)oc(=O)c1Cl)C2=O`: 182 to 184 °C.

For `Cn1cc(C(=O)c2ccc(F)cc2)cc1C(=O)c1ccccn1`, the melting point was 159 to 161 °C.

Consider `O=[N+]([O-])c1cc(C(F)(F)F)c(Cl)c([N+](=O)[O-])c1Nc1cc(C(F)(F)F)cc(C(F)(F)F)n1`, for which the melting point lay in the range of 169 to 170 °C. `CC(C)Nc1nc2ccccc2n2cnnc12` displayed a melting point of 133 to 135 °C. Compound `CCOC(=O)CC(=O)c1cc(F)c(S(=O)CC)nc1Nc1ccc(F)cc1F` (configuration not stated) gave a melting point of 115 to 116 °C. `COc1ccc2cc([C@H](C)C(=O)OCC(=O)N(C)CC(=O)NCCO[N+](=O)[O-])ccc2c1` came in with a melting point of 79 to 81 °C. The figure for `Cc1nc2ccccc2c2c1OCCN2` is 203 to 204 °C; for `COC(=O)c1cc(-c2cccs2)cc(C)c1NS(=O)(=O)c1ccc(OC)cc1` it is 91 °C; for `COc1cccc(OC2CN([C@H]3CC[C@@H](c4c[nH]c5ccc(F)cc54)CC3)C2)c1` it is 125 to 127 °C. `Cc1cccc(-c2c(CC(=O)Nc3ccc(F)cc3C(F)(F)F)c(=O)oc3cc4c(cc23)CC=C4)c1` registered a melting point of 196 to 197 °C. Regarding `CN1CCN(c2ccc(Nc3ncc4c(Br)cc(-c5ccc(S(C)(=O)=O)cc5)n4n3)cc2)CC1`, the melting point lay in the range of 265 to 266 °C. The compound `COc1cc2c(cc1-c1nc3cc(Cl)ccc3o1)oc1ccccc12` returned a melting point of 191 to 193 °C.
